Laboratory results published in patent US20250268898A1, “METHODS OF TREATING SYNOVIAL SARCOMA PATHOGENESIS BY SUMO2 INHIBITION” (Sanford Burnham Prebys Medical Discovery Institute, priority 2024, published 2025).
Entries after “also recorded” stand apart in the source; their conditions may differ.

What was measured:
[1] = target: T1, Sumo-Activating Enzyme 1 (SAE1) or Sumo-Activating Enzyme 2 (SAE2) (Homo sapiens, UniProt Q9UBE0+Q9UBT2); experiment: Interruption of the SUMO cycle (SAE inhibition); details: E1 Ligase Activation step
T1 sequence (Q9UBE0 1-346): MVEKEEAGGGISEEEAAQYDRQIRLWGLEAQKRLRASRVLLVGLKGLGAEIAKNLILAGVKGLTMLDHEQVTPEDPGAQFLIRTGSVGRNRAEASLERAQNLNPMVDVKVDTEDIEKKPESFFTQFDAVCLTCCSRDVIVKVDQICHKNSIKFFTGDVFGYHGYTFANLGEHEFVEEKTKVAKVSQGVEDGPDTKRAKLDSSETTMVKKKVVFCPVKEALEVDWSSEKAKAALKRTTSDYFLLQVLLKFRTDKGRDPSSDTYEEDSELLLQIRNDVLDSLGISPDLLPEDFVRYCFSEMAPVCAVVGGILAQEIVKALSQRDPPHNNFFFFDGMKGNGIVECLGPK
T1 sequence (Q9UBT2 1-640): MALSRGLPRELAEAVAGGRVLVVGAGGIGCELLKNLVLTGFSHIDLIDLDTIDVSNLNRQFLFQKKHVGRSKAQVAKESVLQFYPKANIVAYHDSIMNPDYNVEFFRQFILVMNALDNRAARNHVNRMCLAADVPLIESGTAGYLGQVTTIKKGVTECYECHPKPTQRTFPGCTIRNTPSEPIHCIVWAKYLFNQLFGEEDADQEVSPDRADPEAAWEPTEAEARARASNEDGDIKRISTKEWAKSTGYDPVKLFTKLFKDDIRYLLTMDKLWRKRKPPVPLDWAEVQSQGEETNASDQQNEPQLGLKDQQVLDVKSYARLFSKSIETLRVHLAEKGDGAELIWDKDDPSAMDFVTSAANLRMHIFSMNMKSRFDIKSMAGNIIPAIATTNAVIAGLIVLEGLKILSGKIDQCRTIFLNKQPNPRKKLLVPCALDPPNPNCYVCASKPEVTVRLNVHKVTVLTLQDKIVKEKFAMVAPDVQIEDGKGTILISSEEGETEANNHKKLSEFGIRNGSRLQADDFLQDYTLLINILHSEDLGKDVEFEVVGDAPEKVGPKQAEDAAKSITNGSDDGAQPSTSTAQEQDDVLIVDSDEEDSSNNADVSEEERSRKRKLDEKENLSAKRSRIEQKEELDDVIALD

[2] = tested on: SYO1 cells; experiment: CellTiter-Glo viability, 2D and 3D cultures; type: cell-based, human; details: over 2, 3, and 4 days
Experimental: (§1) To investigate whether the reduction of proliferation by Compound 1 was due to apoptosis and necrosis in synovial sarcoma cell lines, flow cytometric analyses were performed with cells treated with Compound 1 and untreated cells stained with Annexin V-FITC apoptosis marker, as well as Propidium Iodide necrosis marker for cells in media containing Compound 1 and media only containing DMSO. The proliferation assay was performed using Cell Titer Glo Luminescent Cell Viability Assay (Promega). Cell numbers were optimized for 384-well plate for each cell line. SUMO2 inhibitors including Compound 1 were dissolved in DMSO and echo dotted onto a 384-well plate in varying concentrations, with the final concentration of DMSO at about 0.08% in each well. About 25 μL of cell suspension, a concentration of about 50,000 cells/mL were seeded in each well of a 384-well plate. […] Luminescence was recorded with a plate reader (BMG FLUOStar). The EC50 values were calculated by Graphpad Prism software. Apoptosis was quantified by flow cytometry using Annexin V-FITC kit from BD Biosciences. […] The samples were then analyzed by flow cytometry using Fortessa along with FlowJo analysis software. Cell lines analyzed were HS-SY-II (left) and SYO1 (right) (FIG. 3G). […]

[3] = tested on: Aska-SS cells; experiment: CellTiter-Glo viability, 2D and 3D cultures; type: cell-based; details: over 2, 3, and 4 days
Experimental: as §1

[4] = tested on: HS-SY-II cells; experiment: Colony-forming assay (crystal violet); type: cell-based, human; details: Compound 1 titration series
[5] = tested on: SYO1 cells; experiment: Colony-forming assay (crystal violet); type: cell-based, human; details: Compound 1 titration series
Experimental: Further testing of Compound 1 was performed on 2D and 3D cultures for SYO1 and Aska-SS cell lines to determine whether these culture conditions resist Compound 1 treatment.

[6] = tested on: 12273/99 cells; experiment: Colony-forming assay (crystal violet); type: cell-based, human; details: Compound 1 titration series
[7] = tested on: HS-SY-II and SYO1 cells; experiment: Total RNA sequencing, Compound 1 vs DMSO; type: cell-based, human
Experimental: To comprehensively interrogate the transcriptomic changes occurring in synovial sarcoma cells, HS-SY-II and SYO1 cells were cultured in media containing DMSO and media containing Compound 1 and subjected to total RNA sequencing. HS-SY-II and SYO1 cells were contacted with either Compound 1 at concentrations of between about 25 nM and about 100 nM, or DMSO for 48 hours. The cell suspensions were pelleted, and RNA was extracted with varying concentrations. TRIzol Reagent was used to extract total RNA from SYO1, and HS-SY-II cell pellets, and strands were synthesized using Protoscript II (NEB) with poly A selection. qPCR was performed using TaqMan Gene Expression Master Mix and FAM probes for SUMO2, HPRT, and GAPDH. Paired-end (2×100 bp) sequencing was performed on the NovaSeq 6000 Sequencing System. Data Processing and QC was completed using FastQC and QC summarization was done by MultiQC. Mapping to human genome hg38 v84 was done using STAR sequence aligner, and expression was estimated using RSEM. DESeq2 was used for differential expression analysis, and IPA algorithm was used in evaluation of upstream pathway regulators.
The RNA-seq reads were analyzed for each sample to the human reference genome GRCh38 using STAR aligner. Expression estimation was conducted using RSEM followed by differential expression calling using DESeq2. For target genes of interest in both HS-SY-II and SYO1, a total of 960 differentially expressed target genes of interest (DEGs) were analyzed using […] (FIG. 4A).
Upregulation of target genes of interest activated by the chimeric SS18-SSX fusion protein in DMSO media and in media containing Compound 1 were mapped with size and […] (FDR) quantified, based on […] (NES) values (FIG. 4D). Expression of various target genes of interest, upregulation, and downregulation by SS18-SSX fusion genomes, were measured in contact with varying concentrations of Compound 1 (FIG. 4E). Heat maps were created mapping the various target genes of interest cultured in media containing only DMSO, compared to media containing Compound 1, for multiple samples (FIG. 4F-4G). Enrichment scores were calculated using gene set enrichment analysis for HS-SY-II cells in contact with DMSO and varying concentrations of Compound 1 for target genes of interest (FIG. 4H). Additional experiments comparing gene expression differences due to DMSO or Compound 1 on SYO-II and HS-SY-II cells were performed. Not only were SS18-SSX-regulated genes affected by Compound 1 treatment, but other genes also impacted included the HOX genes: HOXC6, HOXA10 as well as SRSF1 and TYMS. (FIG. 4I).

[8] = tested on: SS18-SSX1 protein; experiment: Western blot for SS18-SSX fusion protein levels; type: cell-based, human
Experimental: shRNAs targeting SUMO2 were cloned into a tetracycline-inducible plasmid and expressed in HS-SYII cells. Small hairpin RNAs (shRNAs) for SUMO2 were cloned into the all-in-one-Tet vector and packaged into lentivirus using pMD and pPax2. A cell suspension containing about 300,000 HS-SY-II and SYO1 cells were seeded into six-well culture plates overnight for about 12-14 hours. Transfections were performed with Lipofectamine 2000 reagent. At about 48 hours after transfection, media was changed and puromycin selected for about 2 days. After selection, cells were subjected to a previously determined amount of doxycycline, about 4.5 μg/ml, for about 48 hours. Cells were harvested for qPCR quantification and western blot analysis.
The effect of Compound 1 was compared to the effect of SUMO2 knockdown by shRNA.

[9] = tested on: SS18-SSX fusion; experiment: Spike-in normalized CUT&RUN of SS18-SSX chromatin occupancy; type: cell-based, human
Experimental: Subsequent studies sought to determine the mechanism behind Compound 1 treatment and the observed attenuation of SS18-SSX expression activity. Initial studies utilizing Cleavage Under Targets & Release Using Nuclease (CUT&RUN) focused on determining whether Compound 1 affects the chromatin occupancy of the SS18-SSX fusion protein. […] Since increased H2AK119ub deposition has been linked to the pathogenic activity of the SS18-SSX fusions, H2AK119 ubiquitination was assessed in Compound 1-treated cells.

[10] = tested on: H2AK119ub; experiment: H2AK119ub immunoblotting; type: cell-based, human
[11] = tested on: H2AK119ub; experiment: ChIP-sequencing of H2AK119ub; type: cell-based, human
[12] = tested on: Aska-SS flank tumors; experiment: Flank tumor xenograft in nude mice; type: in vivo
Experimental: (§2) To determine the antitumor activity of Compound 1 in vivo, either Aska-SS cells (harboring the SS18-SSX1 fusion) or SYO1 cells (harboring the SS18-SSX2 fusion) were injected into the flanks of nude mice. When tumors became palpable, mice were treated with 25 mg/kg of Compound 1 or vehicle.
(§3) Flank tumors were harvested, sectioned, and stained with hematoxylin and eosin and analyzed with IHC for tumoricidal markers.

[13] = tested on: SYO1 flank tumors; experiment: Flank tumor xenograft in nude mice; type: in vivo
Experimental: as §2, §3

[14] = 25 mg/kg, 3 intraperitoneal injections a week for 5 weeks, vs vehicle
[15] = Ki-67 staining of tumor sections, vs vehicle-treated tumors
[16] = harvested flank tumors, vs vehicle-treated tumors

## Cc1sc(C(=O)c2cncnc2N[C@@H]2C[C@H](COS(N)(=O)=O)[C@@H](O)C2)cc1[C@@H]1NCCc2ccc(Cl)cc21 [Compound 1]
[1]
  interruption of the SUMO cycle: interrupt the SUMO cycle at the E1 Ligase Activation step
[2]
  viability as measured by CellTiter-Glo: progressive and marked decrease in viability; also recorded: affected in a Compound 1 concentration-dependent manner
[3]
  viability as measured by CellTiter-Glo: progressive and marked decrease in viability; also recorded: affected in a Compound 1 concentration-dependent manner
[4]
  colony formation: dramatic and dose-dependent reduction in colony formation
[5]
  colony formation: dramatic and dose-dependent reduction in colony formation
[6]
  colony formation: dramatic and dose-dependent reduction in colony formation
[7]
  expression of GADD45B: increased expression (de-repression); also recorded: increase in its expression
  expression of HOXA10 and SOX8: reduced expression
[7]; HS-SY-II and SYO1, vs DMSO
  expression of key cancer-associated genes upregulated by the SySa fusion (CDX2, HOXA10, SUZ12, TYMS, AURKB, HOXC10, SMC2): downregulated
[7]; SYO1 and HS-SY-II cells, vs DMSO
  expression of HOXC6, HOXA10, SRSF1 and TYMS: impacted
[7]; SYO-II and HS-SY-II cells, vs DMSO
  expression of SS18-SSX-regulated genes: affected
[8]; HS-SY-II cell line
  levels of SS18-SSX1 protein: reduction in the levels
[8]; SYO1 cell lines
  levels of SS18-SSX1 fusion: reduction in the levels
[9]
  SS18-SSX fusion occupancy at SS18-SSX-repressed target GADD45B: diminished SS18-SSX fusion occupancy; also recorded: decrease of SS18-SSX occupation of this gene
  SS18-SSX occupancy at SS18-SSX-activated targets HOXA10 and SOX8: lost SS18-SSX occupancy; also recorded: decrease of SS18-SSX occupation
[9]; Compound 1-treated compared to vehicle-treated arms
  SS18-SSX2 fusion genomic occupancy: substantial decrease
[9]; SYO1 cells, compared to DMSO treated cells
  reduction in genome-wide chromatin binding signal of the SS18-SSX fusion (FRiP): 1.87 fold
[9]; maximum signal centered around the transcription start site
  fusion-binding signal at synovial sarcoma target genes (meta-analysis): reduction in the fusion binding
[10]; 1273/99 cell line
  H2AK119ub by immunoblotting: marked reduction
[10]; Aska cell line
  H2AK119ub by immunoblotting: marked reduction
[10]; HS-SY-II cell line
  H2AK119ub by immunoblotting: marked reduction
[10]; SYO1 cell line
  H2AK119ub by immunoblotting: marked reduction
[11]
  H2AK119ub at GADD45B: reduced H2AK119ub
[11]; SYO1 cells, versus DMSO-treated
  reduction of genome-wide H2AK119ub levels (FRiP): 1.53 fold
[11]; compared to DMSO-treated cells
  H2AK119ub genome-wide: substantial reduction
[12]; [14]
  tumor growth: reduction of tumor growth
  tumor volumes: significantly reduced
  tumor weights: significantly reduced
[12]; [15]
  decrease in Ki67 positivity: ~60%
[12]; [16]
  number of cells per unit area (tumor cellularity, hematoxylin and eosin): marked reduction
[13]; [14]
  tumor growth: reduction of tumor growth
  tumor volumes: significantly reduced
  tumor weights: significantly reduced
[13]; [15]
  decrease in Ki67 positivity: ~60%
[13]; [16]
  number of cells per unit area (tumor cellularity, hematoxylin and eosin): marked reduction
